The NIST ThermoML archive (doi:10.1021/je060219e)
Where “and” joins values, the source holds several entries; their conditions need not be identical. Equal entries are not always repeated.

Assay: φn = volume fraction of the nth substance listed
Settings: 101 kPa, Liquid

CCO [ethanol] + O
viscosity
Settings	303.15 K	308.15 K	313.15 K	318.15 K	323.15 K
φ1 = 0.1	0.6791 mPa·s	0.6191 mPa·s	0.5909 mPa·s	0.5763 mPa·s	0.5305 mPa·s
φ1 = 0.2	0.9735 mPa·s	0.871 mPa·s	0.7442 mPa·s	0.6476 mPa·s	0.598 mPa·s
φ1 = 0.3	1.186 mPa·s	0.8816 mPa·s	0.8614 mPa·s	0.797 mPa·s and 0.79 mPa·s	0.698 mPa·s
φ1 = 0.4	1.254 mPa·s	1.147 mPa·s	0.9262 mPa·s	0.8844 mPa·s	0.7081 mPa·s
φ1 = 0.5	1.426 mPa·s	1.216 mPa·s	1.14 mPa·s	0.8776 mPa·s	0.825 mPa·s
